Measurements published in ChEMBL document CHEMBL1201862, “PubChem BioAssay data set” (2004).
Structures can show the parent of a compound that is named as a salt. Calls of active or inactive are those of the source.

Experiments:
[1] = molecular target: T1, Oxysterols receptor LXR-beta (Homo sapiens, UniProt P55055); experiment: LXR agonists, Gal4 luciferase reporter, dose response, counter-screen for ssDAF-12 agonist project, cell-based, luminescence, HEK293, S. stercoralis campaign (AID 720737); format: functional; conditions: read-out: IC50 (the source's name)
T1 sequence (P55055 whole entry): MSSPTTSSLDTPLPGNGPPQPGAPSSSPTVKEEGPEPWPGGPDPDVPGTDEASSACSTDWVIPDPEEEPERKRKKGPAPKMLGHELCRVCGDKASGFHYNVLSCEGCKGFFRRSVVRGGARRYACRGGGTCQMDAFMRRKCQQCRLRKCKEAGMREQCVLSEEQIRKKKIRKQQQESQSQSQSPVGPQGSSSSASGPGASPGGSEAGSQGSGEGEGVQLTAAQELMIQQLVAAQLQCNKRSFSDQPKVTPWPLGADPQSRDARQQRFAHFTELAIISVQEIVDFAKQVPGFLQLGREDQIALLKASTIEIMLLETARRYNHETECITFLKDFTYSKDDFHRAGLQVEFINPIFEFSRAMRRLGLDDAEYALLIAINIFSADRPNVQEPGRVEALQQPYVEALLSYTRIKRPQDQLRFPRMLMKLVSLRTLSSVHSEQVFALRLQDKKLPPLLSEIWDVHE

[2] = Luminescence-based cell-based high throughput dose response assay to identify activators of the DAF-12 from the parasite S. stercoralis (ssDAF-12).; format: functional
[3] = molecular target: T1, Oxysterols receptor LXR-beta; format: functional, cell-based
Protein skinhead-1 = molecular target: T2, Protein skinhead-1 (Caenorhabditis elegans, UniProt P34707); format: functional
T2 sequence (P34707 whole entry): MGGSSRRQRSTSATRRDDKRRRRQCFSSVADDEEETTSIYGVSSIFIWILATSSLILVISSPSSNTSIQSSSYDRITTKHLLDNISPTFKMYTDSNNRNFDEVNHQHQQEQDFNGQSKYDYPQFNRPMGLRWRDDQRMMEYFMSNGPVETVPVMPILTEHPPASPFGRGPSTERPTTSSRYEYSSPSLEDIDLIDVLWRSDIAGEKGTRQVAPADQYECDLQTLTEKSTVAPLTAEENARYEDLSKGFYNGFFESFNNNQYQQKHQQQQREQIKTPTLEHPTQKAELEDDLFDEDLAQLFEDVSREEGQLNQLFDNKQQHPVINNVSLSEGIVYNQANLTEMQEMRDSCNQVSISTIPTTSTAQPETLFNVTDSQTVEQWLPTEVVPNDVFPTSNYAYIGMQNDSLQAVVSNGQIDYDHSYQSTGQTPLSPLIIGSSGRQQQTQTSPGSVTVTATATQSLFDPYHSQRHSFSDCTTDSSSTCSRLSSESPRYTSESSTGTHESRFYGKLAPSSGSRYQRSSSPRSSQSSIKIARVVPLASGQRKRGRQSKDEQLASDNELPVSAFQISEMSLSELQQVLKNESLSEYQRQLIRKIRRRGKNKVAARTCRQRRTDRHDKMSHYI

Protein Tat = molecular target: T3, Protein Tat (Human immunodeficiency virus type 1 group M subtype B (isolate HXB2)(HIV-1), UniProt P04608); format: functional;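 further: tat binding to TAR RNA read out by fluorescence polarization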
T3 sequence (P04608 whole entry): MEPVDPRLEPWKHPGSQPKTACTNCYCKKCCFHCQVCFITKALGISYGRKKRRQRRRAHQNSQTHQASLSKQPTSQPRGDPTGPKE

[4] = THP-1 cell cytotoxicity, dose response, cytotoxicity control for Vif-APOBEC3G degradation inhibitor project, THP-1 cells (AID 1117359); format: functional; conditions: Human immunodeficiency virus 1, THP-1
[5] = HeLa 4N DNA content increase, dose response, cell-based, IC50 (AID 1117351); format: functional
[6] = HeLa 2N DNA content increase, dose response, cell-based, IC50 (AID 1117349); format: functional
Paired box protein Pax-8 = Paired box protein Pax-8 (Homo sapiens, UniProt Q06710); experiment: inhibitors of PAX8-driven TPO luciferase reporter, dose response, RMG-I cells, cherry-pick (AID 687027); format: functional, cell-based;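 further: luciferase reporter driven by Pax8 target thyroperoxidase promoter measured by SteadyGlo luminescence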
[7] = NIH:OVCAR-3 ovarian cancer cell cytotoxicity, dose response, PAX8 inhibitor project, plate reader, dry powder samples (AID 743044); format: functional, cell-based
[8] = cytotoxicity in OVCAR8 ovarian cancer cells, dose response, PAX8 project, cell-based, plate reader, dry powder samples (AID 743197); format: functional; conditions: OVCAR-8
[9] = molecular target: Glucose-6-phosphate 1-dehydrogenase (Homo sapiens, UniProt P11413); experiment: human G6PD enzyme inhibitors, dose response, selectivity assay for P. falciparum G6PD inhibitor project, biochemical, fluorescence (AID 504792); format: functional
Large T antigen = Large T antigen (Simian virus 40, UniProt P03070); format: functional, Betapolyomavirus macacae;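 further: Confirmatory-stage PubChem screen for compounds that inhibit SV40 T antigen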
Caspase-6 = molecular target: T4, Caspase-6 (Homo sapiens, UniProt P55212); experiment: human caspase-6 inhibitors, dose response, biochemical, VEID-R110 fluorescence, cherry-pick (AID 720632)
T4 sequence (P55212 whole entry): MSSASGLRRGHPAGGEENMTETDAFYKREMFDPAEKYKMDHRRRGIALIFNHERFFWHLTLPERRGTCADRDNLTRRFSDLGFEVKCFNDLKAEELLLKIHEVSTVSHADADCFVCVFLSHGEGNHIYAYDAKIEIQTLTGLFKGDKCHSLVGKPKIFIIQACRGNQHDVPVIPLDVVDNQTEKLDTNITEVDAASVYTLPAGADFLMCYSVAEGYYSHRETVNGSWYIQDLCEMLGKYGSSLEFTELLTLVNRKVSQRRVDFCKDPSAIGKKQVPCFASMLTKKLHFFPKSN

[10] = molecular target: T5, Histone-lysine N-methyltransferase NSD2 (Homo sapiens, UniProt O96028); format: biochemical
T5 sequence (O96028 whole entry): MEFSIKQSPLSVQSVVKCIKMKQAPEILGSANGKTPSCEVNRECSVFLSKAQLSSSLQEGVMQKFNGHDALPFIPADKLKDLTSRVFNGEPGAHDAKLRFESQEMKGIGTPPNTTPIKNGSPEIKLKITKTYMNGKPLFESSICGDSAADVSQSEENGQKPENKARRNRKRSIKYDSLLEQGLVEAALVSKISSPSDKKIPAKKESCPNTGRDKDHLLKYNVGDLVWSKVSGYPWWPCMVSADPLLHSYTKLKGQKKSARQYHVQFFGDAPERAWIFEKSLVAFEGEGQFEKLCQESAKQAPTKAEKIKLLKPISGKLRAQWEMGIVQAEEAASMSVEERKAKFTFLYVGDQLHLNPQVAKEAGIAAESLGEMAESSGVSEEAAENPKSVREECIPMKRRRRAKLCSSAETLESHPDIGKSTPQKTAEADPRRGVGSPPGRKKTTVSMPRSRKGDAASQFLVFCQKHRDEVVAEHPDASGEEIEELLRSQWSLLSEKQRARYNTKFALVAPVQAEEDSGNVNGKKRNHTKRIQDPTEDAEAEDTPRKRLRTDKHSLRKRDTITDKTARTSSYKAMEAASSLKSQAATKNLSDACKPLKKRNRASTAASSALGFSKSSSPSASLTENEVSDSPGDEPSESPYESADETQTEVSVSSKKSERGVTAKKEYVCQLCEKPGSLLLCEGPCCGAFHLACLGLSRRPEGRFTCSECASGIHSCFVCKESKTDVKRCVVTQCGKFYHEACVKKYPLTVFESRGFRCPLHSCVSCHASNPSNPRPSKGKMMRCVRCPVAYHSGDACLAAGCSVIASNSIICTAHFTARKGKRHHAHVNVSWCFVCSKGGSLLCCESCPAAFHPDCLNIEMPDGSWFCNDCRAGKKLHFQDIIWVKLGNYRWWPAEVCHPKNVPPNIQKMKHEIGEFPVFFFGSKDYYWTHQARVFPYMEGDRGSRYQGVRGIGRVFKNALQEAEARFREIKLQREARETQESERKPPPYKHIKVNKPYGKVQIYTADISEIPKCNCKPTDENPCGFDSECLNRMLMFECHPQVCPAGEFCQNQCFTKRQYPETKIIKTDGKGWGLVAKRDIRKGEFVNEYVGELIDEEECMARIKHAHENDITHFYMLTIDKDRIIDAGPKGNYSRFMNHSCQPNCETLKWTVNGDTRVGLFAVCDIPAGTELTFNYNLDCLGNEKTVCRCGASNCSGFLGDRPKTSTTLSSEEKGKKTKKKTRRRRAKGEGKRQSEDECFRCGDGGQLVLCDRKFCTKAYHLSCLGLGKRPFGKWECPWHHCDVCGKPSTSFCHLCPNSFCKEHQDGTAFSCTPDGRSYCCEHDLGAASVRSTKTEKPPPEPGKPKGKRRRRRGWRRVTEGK

Genome polyprotein = Genome polyprotein (dengue virus type 2, UniProt P29990); experiment: Dengue-2 NS5 methyltransferase inhibitors, primary screen, biochemical, confirmation dose response (AID 588689); format: functional
Streptococcus = experiment: Group A Streptococcus viability loss, dose response, counter-screen for streptokinase expression inhibitor project, luminescence, BacTiterGlo (AID 1915); format: functional, organism-based;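 further: potency for reduction of bacterial viability or growth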
[11] = molecular target: T6, Heat shock factor protein 1 (Mus musculus, UniProt P38532); experiment: inhibition of MG132-induced HSE-luciferase signal, confirmation, cell-based, NIH3T3, luminescence, dose retest (AID 2382); format: functional;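 further: NIH3T3 fibroblasts with HSF1-driven luciferase reporter stressed by proteasome inhibitor MG132; luminescence from HSF1-driven luciferase expression after 8 hours of MG132 stress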
T6 sequence (P38532 whole entry): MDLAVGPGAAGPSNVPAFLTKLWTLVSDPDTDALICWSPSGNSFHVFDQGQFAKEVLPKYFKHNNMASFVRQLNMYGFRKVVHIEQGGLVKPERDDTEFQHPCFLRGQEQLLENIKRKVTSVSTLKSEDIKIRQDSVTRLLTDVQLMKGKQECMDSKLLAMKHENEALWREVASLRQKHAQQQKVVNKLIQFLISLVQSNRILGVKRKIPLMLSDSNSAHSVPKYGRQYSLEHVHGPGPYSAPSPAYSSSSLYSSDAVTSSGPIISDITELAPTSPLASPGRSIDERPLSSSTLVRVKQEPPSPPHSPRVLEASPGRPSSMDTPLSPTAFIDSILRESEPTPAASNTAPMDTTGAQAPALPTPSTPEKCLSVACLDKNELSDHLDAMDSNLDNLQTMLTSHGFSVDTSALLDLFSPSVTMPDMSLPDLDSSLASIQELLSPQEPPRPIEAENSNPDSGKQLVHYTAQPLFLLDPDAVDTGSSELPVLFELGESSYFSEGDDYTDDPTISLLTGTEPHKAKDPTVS

[12] = C. albicans growth with fluconazole, confirmation, fluorescence, retest (AID 2467); format: functional, cell-based
[13] = system: Streptococcus sp. 'group A'; experiment: growth inhibition of control SK(-) GAS strain, dose response, counter-screen for streptokinase expression inhibitor project, luminescence, kanamycin, BacTiterGlo, confirmation (AID 1900); format: functional, organism-based
Streptokinase A = molecular target: T7, Streptokinase A (Streptococcus pyogenes serotype M1, UniProt P10520); experiment: S. pyogenes streptokinase expression inhibitors, potency, dose response, plasminogen activation absorbance, OD405 (AID 1914); format: functional, Streptococcus pyogenes M1 GAS;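 further: secreted streptokinase activity via plasminogen activation per viability signal from cell pellet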
T7 sequence (P10520 whole entry): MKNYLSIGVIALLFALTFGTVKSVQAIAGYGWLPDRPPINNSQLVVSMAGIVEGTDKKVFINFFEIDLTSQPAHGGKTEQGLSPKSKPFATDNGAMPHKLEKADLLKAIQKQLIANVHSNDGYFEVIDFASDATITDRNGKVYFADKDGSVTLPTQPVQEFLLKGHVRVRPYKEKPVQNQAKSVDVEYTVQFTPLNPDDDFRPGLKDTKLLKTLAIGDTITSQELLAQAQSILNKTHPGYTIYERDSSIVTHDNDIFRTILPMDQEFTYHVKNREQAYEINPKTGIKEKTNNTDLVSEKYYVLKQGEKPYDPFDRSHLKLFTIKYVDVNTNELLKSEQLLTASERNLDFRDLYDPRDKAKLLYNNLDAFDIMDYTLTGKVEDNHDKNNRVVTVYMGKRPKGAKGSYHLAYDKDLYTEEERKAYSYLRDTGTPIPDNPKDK

[14] = NIH-3T3 fibroblast cytotoxicity, dose response, cytotoxicity control, cell-based, fluorescence, Alamar Blue, secondary assay (AID 2327); format: functional;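 further: NIH-3T3 mouse fibroblasts cultured with fluconazole at 8 µg/mL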
Vero = Vero cell cytotoxicity, cytotoxicity control for flavivirus capping enzyme inhibitors (AID 588742); format: functional; conditions: Chlorocebus sabaeus
Cytochrome P450 2C9 = Cytochrome P450 2C9 (Homo sapiens, UniProt P11712)
Cytochrome P450 2D6 = Cytochrome P450 2D6 (Homo sapiens, UniProt P10635);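 further: CYP2D6 member of a cytochrome P450 panel assay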
Cytochrome P450 2D6, sequence (P10635 whole entry): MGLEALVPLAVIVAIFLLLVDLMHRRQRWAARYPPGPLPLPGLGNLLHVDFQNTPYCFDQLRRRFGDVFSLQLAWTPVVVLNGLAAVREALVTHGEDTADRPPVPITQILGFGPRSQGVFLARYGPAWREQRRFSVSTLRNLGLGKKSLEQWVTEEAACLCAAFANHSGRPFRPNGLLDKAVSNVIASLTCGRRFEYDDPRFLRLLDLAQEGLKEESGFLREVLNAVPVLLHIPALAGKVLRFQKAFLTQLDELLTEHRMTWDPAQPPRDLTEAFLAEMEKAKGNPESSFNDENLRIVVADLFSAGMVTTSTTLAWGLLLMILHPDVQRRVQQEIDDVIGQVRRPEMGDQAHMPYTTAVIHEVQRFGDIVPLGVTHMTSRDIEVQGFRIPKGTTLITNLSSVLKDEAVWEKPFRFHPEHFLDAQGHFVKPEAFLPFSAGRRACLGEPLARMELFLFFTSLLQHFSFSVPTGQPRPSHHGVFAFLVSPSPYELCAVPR

Paired box protein Pax-8, sequence (Q06710 whole entry): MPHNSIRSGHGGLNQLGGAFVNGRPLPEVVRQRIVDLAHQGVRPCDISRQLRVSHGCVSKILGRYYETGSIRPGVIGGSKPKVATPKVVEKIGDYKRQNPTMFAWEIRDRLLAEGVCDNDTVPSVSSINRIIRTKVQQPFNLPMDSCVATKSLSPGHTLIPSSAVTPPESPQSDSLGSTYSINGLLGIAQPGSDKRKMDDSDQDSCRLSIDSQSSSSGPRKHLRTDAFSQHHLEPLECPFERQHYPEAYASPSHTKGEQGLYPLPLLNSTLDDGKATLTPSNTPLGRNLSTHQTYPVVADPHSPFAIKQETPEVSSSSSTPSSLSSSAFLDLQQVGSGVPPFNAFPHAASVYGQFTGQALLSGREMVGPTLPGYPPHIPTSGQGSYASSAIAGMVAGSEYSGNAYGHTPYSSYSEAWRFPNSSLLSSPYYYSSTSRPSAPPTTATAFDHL
Genome polyprotein, sequence (P29990 2492-3391 limits assumed): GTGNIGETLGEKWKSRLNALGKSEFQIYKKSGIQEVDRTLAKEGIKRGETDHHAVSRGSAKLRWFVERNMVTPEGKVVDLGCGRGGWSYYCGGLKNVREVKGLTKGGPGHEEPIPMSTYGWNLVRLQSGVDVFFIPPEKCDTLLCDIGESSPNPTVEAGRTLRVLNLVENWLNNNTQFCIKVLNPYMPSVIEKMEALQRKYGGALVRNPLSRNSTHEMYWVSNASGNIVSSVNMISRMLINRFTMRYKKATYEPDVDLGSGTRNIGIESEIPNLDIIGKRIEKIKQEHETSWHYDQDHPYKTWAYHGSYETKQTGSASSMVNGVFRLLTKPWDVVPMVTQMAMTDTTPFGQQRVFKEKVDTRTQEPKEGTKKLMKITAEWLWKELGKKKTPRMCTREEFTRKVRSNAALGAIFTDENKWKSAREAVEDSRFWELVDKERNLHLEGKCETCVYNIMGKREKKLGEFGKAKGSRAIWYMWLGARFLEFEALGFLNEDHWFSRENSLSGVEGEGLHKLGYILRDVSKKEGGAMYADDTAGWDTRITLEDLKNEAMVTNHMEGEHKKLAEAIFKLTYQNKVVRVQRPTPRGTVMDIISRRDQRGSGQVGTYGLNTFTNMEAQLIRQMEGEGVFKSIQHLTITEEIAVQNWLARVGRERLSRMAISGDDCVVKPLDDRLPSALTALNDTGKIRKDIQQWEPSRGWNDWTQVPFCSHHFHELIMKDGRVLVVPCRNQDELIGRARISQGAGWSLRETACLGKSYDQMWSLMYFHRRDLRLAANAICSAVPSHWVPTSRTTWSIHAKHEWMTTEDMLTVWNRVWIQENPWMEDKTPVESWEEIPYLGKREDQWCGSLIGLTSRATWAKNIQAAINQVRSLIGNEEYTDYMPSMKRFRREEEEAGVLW
Glucose-6-phosphate 1-dehydrogenase, sequence (P11413 whole entry): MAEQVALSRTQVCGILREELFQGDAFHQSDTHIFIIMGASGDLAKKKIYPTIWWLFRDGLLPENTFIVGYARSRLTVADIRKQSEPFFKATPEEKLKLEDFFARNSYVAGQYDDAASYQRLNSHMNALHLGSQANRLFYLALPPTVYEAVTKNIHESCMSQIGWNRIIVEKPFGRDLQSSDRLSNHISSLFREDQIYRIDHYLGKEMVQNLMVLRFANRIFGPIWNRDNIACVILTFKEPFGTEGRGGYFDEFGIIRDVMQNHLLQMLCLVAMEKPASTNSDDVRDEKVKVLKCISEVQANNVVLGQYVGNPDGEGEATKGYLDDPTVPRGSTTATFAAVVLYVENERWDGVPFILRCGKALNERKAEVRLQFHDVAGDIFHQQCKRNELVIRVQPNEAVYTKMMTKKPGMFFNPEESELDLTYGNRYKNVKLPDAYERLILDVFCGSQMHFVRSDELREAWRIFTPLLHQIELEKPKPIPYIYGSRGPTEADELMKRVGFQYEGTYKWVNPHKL
Large T antigen, sequence (P03070 whole entry): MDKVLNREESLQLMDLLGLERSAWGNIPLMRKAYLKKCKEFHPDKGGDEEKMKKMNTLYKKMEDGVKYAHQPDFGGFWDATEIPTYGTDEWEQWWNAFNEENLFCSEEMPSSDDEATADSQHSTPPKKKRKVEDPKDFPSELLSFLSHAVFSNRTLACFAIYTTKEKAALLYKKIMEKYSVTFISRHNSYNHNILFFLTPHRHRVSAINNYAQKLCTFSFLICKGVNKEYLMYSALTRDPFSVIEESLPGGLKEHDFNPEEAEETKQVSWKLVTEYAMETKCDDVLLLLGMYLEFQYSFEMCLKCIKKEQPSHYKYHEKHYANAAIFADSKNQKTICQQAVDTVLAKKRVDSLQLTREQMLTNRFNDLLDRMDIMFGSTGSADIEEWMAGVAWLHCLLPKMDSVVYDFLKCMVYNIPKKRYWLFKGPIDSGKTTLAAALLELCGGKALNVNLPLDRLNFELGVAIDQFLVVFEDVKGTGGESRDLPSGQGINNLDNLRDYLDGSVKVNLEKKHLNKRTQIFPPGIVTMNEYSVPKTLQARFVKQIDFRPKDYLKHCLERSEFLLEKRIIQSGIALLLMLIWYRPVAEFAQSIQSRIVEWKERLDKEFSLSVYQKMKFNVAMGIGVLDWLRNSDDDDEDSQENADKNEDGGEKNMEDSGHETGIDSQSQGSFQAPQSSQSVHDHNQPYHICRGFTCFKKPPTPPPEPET
Cytochrome P450 2C9, sequence (P11712 whole entry): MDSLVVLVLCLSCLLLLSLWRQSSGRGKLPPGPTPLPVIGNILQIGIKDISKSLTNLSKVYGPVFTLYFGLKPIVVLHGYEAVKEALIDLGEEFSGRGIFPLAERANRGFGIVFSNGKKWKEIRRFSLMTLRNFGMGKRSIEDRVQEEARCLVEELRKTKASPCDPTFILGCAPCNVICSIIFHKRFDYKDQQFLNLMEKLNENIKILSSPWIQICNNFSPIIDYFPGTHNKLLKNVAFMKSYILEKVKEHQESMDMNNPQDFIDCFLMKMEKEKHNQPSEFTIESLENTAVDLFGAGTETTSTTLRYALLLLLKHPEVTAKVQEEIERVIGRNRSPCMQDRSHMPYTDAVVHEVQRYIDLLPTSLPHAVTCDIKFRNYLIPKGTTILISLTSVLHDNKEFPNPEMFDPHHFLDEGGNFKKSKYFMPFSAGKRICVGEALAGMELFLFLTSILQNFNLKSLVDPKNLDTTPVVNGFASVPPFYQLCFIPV

O=C(/C=C/c1cccs1)N1CCc2ccccc21
EC50 [1]: > 67.5 µM (inactive)
EC50 (cells): > 67.5 µM (inactive)
IC50 [2]: > 67.5 µM (inactive)
EC50 [3]: > 67.5 µM (inactive)
IC50 (Protein skinhead-1): > 100 µM (inactive)

CC(C)(C)OC(=O)N(Cc1ccccc1)Cc1cccc(OCc2cccc(NC(=O)c3ccccc3)c2)c1
IC50 (Protein Tat): > 100 µM (active)
CC50 [4]: > 40 µM (active)

CN(C)N=Nc1[nH]cnc1C(N)=O
IC50 [5]: > 10 µM (inactive)
IC50 [6]: > 10 µM (inactive)
AC50 (Paired box protein Pax-8): 5.34 µM (active)

COc1ccccc1NC(=O)N1CCCCN2[C@H](C1)[C@@H](c1ccc(-c3cccc(C#N)c3)cc1)[C@@H]2CO
AC50 [7]: 23.2 µM (active)
AC50 (Paired box protein Pax-8): 11.6 µM (active)
AC50 [8]: > 70 µM (inactive)

O=C(O)c1cccc(N2C(=O)c3ccc(C(=O)c4cccc([N+](=O)[O-])c4)cc3C2=O)c1
EC50 [1]: > 67.5 µM (inactive)
IC50 [2]: > 67.5 µM (inactive)

O=C1NC(=O)N(c2ccccc2)C(=O)/C1=C/c1ccc([N+](=O)[O-])s1
IC50 [9]: 76.7 µM (inactive)
IC50 (Large T antigen): 59.3 µM (active)
AC50 (Caspase-6): 33.3 µM (active)
AC50 [10]: > 20 µM (inactive)
IC50 (Genome polyprotein): 20.4 µM (active)

CC(=O)[C@]1(O)Cc2c(O)c3c(c(O)c2[C@@H](O[C@H]2C[C@H](N)[C@H](O)[C@H](C)O2)C1)C(=O)c1ccccc1C3=O [IDARUBICIN HYDROCHLORIDE]
IC50 [5]: > 10 µM (inactive)
EC50 (Streptococcus): 2.6 µM (active)
EC50 [11]: 3.01 µM (inconclusive)
IC50 [6]: 0.0111 µM (active)
EC50 [12]: > 38 µM (not active)
EC50 [13]: 1.07 µM (active)
EC50 (Streptokinase A): > 150 µM (not active)
EC50 [14]: 0.178 µM (inconclusive)

CN=c1ccc(Br)cc(C(=O)/C=C/c2ccc3c(c2)OCO3)c1O
CC50 (Vero): > 40 µM (active)
AC50 (Cytochrome P450 2C9): inconclusive
IC50 (Protein Tat): 40.7 µM (inconclusive)
CC50 [4]: > 40 µM (active)
AC50 (Cytochrome P450 2D6): 10 µM (inconclusive)

Fc1ccc(-c2nc3n(n2)Cc2ccccc2-3)cc1
EC50 [1]: > 67.6 µM (inactive)
EC50 (cells): > 67.6 µM (inactive)
IC50 [2]: > 67.6 µM (inactive)
EC50 [3]: > 67.6 µM (inactive)
